“Also recorded” adds a separate entry of the source. Where no end group is shown, it is not given here. Rhod = not defined here
Experiments:
[1] = tested on: HeLa cells transfected with GR-GFP; assay: GR-GFP translocation assay (cytosolic access of Dex-labeled molecules); assay type: cell-based; details: for effect of bafilomycin on TR: 200 nM bafilomycin pretreatment 1 h; for effect of bafilomycin on TR / effect of EIPA on TR / effect of dynasore on TR / effect of methyl-β-cyclodextrin (MβCD) on TR: then 1 μM; for translocation ratio (TR) / effect of EIPA on TR / effect of dynasore on TR / effect of methyl-β-cyclodextrin (MβCD) on TR: 30 min; for translocation ratio (TR): HeLa cells expressing GR-GFP; for effect of EIPA on TR: 50 μM EIPA pretreatment 30 min; for effect of dynasore on TR: 80 μM dynasore pretreatment 30 min; for effect of methyl-β-cyclodextrin (MβCD) on TR: 5 mM MβCD pretreatment 30 min
Method: HeLa cells transfected with pK7-GR-GFP were plated in Matrical plates as described above. To label nuclei, the media was replaced with HKR buffer containing 300 nM Hoescht and the cells incubated for 30 min at 37° C.
Cells were then analyzed as described above.
HeLa cells transfected with pK7-GR-GFP for 24-36 hr were plated (10^4/well in 200 μL) the day prior to experiments in 96 well glass bottom plates (Matrical). The media was replaced with HKR buffer containing 300 nM Hoescht and the cells incubated for 30 min at 37° C. […] The cells were incubated for a further 30 min at 37° C. before epifluorescence imaging using a Zeiss Axiovert 200M microscope fitted with a mRM digital camera, a 63×1.3NA PlanApo objective and an EXFO-Excite illumination source.
Uptake was allowed to proceed for an additional 30 min at 37° C. before analysis by epifluorescence images as described elsewhere herein.
The image analysis algorithm used by CellProfiler is customizable and contained within a ‘Pipeline’ that describes a series of image manipulation and evaluation steps, such as reading the image, adjusting the intensity, and identifying objects. Each step has several options. […] Using the image of Hoescht fluorescence and Otsu's method of automatic thresholding, nuclei were identified and segmented using 3 class thresholding. The middle class was assigned to background. Closely approximated objects were separated using ‘Laplacian of Gaussian’ modeling, and touching nuclei were divided using the ‘shape’ option. Nuclear regions were expanded by 2 μm to generate an enlarged region. The nuclear region was subtracted from enlarged region to generate a ring surrounding the nucleus (surround). […] The ratio of the median intensities of the nuclear and surrounding region of the GFP or mCherry (as appropriate) image were collected for every cell examined. Those cells falling below a threshold of intensity (10% of the maximum intensity of the image) were discarded as ‘untransfected’. Typically, 20-60 transfected cells from 15-30 images were examined for each experimental condition.

[2] = tested on: HeLa cells transfected with pGR-mCherry and Rab5-GFP or Rab5Q79L-GFP; assay: GR-mCherry translocation in cells expressing Rab5-GFP or Rab5Q79L-GFP; assay type: cell-based; details: for effect of Rab5Q79L on ability to reach the cytoplasm / TR: overexpression of Rab5Q79L-GFP
Method: Cotransfected cells expressing Rab-GFP fusions and pGR-mCherry were identified via their characteristic pattern of green and red fluorescence. The translocation ratio was determined using median values of mCherry fluorescence within the nucleus and surrounding region using CellProfiler.
HeLa cells transfected for 24-36 hr with pGR-mCherry and either Rab5-GFP or Rab5Q79L-GFP were plated (10^4/well in […]) the day prior to experiments in 96 well glass bottom plates (Matrical). The cells were washed with HKR buffer and the nuclei labeled using Hoescht as above. […] The cells were incubated for a further 30 min at 37° C. before imaging. Cells that had been cotransfected with EGFP fusions were identified via their characteristic pattern of green and red fluorescence. To evaluate the extent of GR activation, epifluorescence images were obtained as described above, except the fluorescence of pGR-mCherry was also visualized using Zeiss Filter Set #43 (ex BP 545/25 nm, FT 570, em BP 605/70 nm).
The image analysis algorithm used by CellProfiler is customizable and contained within a ‘Pipeline’ that describes a series of image manipulation and evaluation steps, such as reading the image, adjusting the intensity, and identifying objects. Each step has several options. […] Using the image of Hoescht fluorescence and Otsu's method of automatic thresholding, nuclei were identified and segmented using 3 class thresholding. The middle class was assigned to background. Closely approximated objects were separated using ‘Laplacian of Gaussian’ modeling, and touching nuclei were divided using the ‘shape’ option. Nuclear regions were expanded by 2 μm to generate an enlarged region. The nuclear region was subtracted from enlarged region to generate a ring surrounding the nucleus (surround). The diameter of the surrounding region was chosen to be 2 μm larger than the nucleus, within the range (1-3 μm) used by previously reported high content screens (Ding et al., 1998, J Biol Chem. 273:28897-28905; Peeraniet al., 2007, EMBO J. 26:4744-4755). The ratio of the median intensities of the nuclear and surrounding region of the GFP or mCherry (as appropriate) image were collected for every cell examined. Those cells falling below a threshold of intensity (10% of the maximum intensity of the image) were discarded as ‘untransfected’. Typically, 20-60 transfected cells from 15-30 images were examined for each experimental condition.

[3] = tested on: U2OS(GIGI) cells; assay: GIGI in lysates, stably transfected U2OS(GIGI) cells; assay type: cell-based
From the text: RFUs are expressed±standard deviation (Excel). The maximum induction level is defined as RFUmax. Data were processed using Kaleidagraph and GraphPad Prism software. RFU=([I530]/[I580])−([I′530]/[I′580]) (1)
Y=Ymin+(Ymax−Ymin)/(1+10^logEC50-X) (2)

[4] = tested on: Saos-2(GIGT) cells; assay: GIGT high-content imaging in stably transfected Saos-2(GIGT) cells; assay type: cell-based, human
Method: Saos2(GIGT) cells were plated onto 384-well plates (2,500 cells/well) in 40 μL of full McCoy's 5A and allowed to adhere overnight. […] Following treatment, cells were fixed with 4% paraformaldehyde for 20 min at room temperature and washed with PBS. […] Translocation ratios were determined using Acapella high content imaging and analysis software, with a script that processed the images in a manner similar to the CellProfiler pipeline described in the Supporting Information. Each data point represents 30-60 images containing over 100 cells.

[5] = tested on: HeLa cells; assay: Colocalization with Alexa-488-transferrin (Tf488), live cell confocal microscopy; assay type: cell-based; details: 1 μM, 30 min
Method: To examine the colocalization of rhodamine labeled miniature proteins or peptides with Alexa-488-transferrin (Tf488), HeLa cells were plated (200 μl, 10^4 cells/well, 96 well glass bottom plates, Matrical) the day prior to experiments. The media was replaced with 150 μL Hepes-Krebs-Ringer's (HKR) buffer (140 mM NaCl, 2 mM KCl, 1 mM CaCl2, 1 mM MgCl2, 10 mM Hepes pH 7.4) containing 1 μM miniature protein or 25 nM Alexa-488-transferrin (Molecular Probes) and the cells incubated at 37° C. for 30 min. The cells were then rinsed twice with 200 μL, HKR buffer and nuclei were labeled by overlaying 200 μL HKR containing 300 nM Hoechst 33342 (Molecular Probes Cat. # H3570) for 5 minutes. Images of cells were acquired using a PerkinElmer LiveView spinning disk confocal microscope fitted with a 60×1.2 NA objective. Colocalization with Rab-GFP fusions was examined in an analogous way using HeLa cells transfected with the appropriate expression plasmid.
Colocalization between rhodamine and fluorescein labeled miniature proteins and peptides, or between rhodamine labeled miniature proteins and markers of endocytosis was completed using confocal microscopy. Live cell confocal microscopy was conducted using a PerkinElmer LiveView spinning disk confocal microscope fitted with heated microscope enclosure (maintained at 37° C.), a 60×1.2 NA objective, laser illumination, a Nipkow CSU-1× spinning disk, and a Hammamatsu CS9100 EMCCD camera operated using Velocity software. Alexafluor-488-transferrin was detected using a 488 nm laser and a 520 nm long pass filter; tetraethylrhodamine and Alexafluor-546-transferrin were detected using a 546 nm laser line and a 580 nm long pass filter, Hoescht 33342 was detected using a 405 nm laser line and a 450 nm long pass filter. Images were processed for presentation by using the ‘subtract background’ option and linear contrast adjustments in Image J. All adjustments were applied uniformly to the entire image. Colocalization analysis was performed using the JACOP plugin (Bolte and Cordelières, 2006), available on the ImageJ website. The fraction of rhodamine signal overlapping with EGFP signal (R E G) was calculated using Mander's coefficient and automatic thresholding. Pearson's correlation coefficient (R) was also obtained using the JACOP plugin.

[6] = tested on: HeLa cells; assay: Effects of endocytosis inhibitors on cell uptake, confocal microscopy; assay type: cell-based; details: 1 μM rhodamine labeled, 30 min, 37° C.
Method: HeLa cells grown for 24 h in glass bottom plates were incubated with HKR buffer, or HKR buffer containing 80 μM dynasore, 50 μM N-ethyl-isopropyl-amiloride, or 5 mM methyl-β-cyclodextrin for 30 min at 37° C. prior to the addition of 1 μM rhodamine-labeled miniature protein or peptide (Tat (SEQ ID NO:67) and Arg8 (SEQ ID NO:68)). The cells were washed twice with DMEM, the nuclei labeled with Hoescht, and images acquired as described above for colocalization experiments.

[7] = tested on: HeLa cells; assay: HPLC analysis of cytosolic extracts prepared with streptolysin O; assay type: cell-based; details: HeLa cells treated with rhodamine labeled molecule
Method: To generate cytosolic extracts, HeLa cells were treated with streptolysin O (SLO), a well characterized bacterial toxin that creates pores in the plasma membranes of target cells (Walev et al., 2002, FASEB 16:237-239). […] Moreover, when the toxin is added to cultured cells at 4° C. and washed with PBS before raising the temperature to 37° C., pores are created only in the plasma membrane and the release of ER, golgi, or endolysosomal contents are avoided (Androlewicz et al., 1993, Proc Natl Acad Sci USA 90:9130-9134).
First, selective release of the cytoplasmic contents of HeLa cells using the published procedures was verified. HeLa cells were treated with 20 μg/mL SLO in PBS containing 5 mM DTT (20 min, 4° C.), washed (three PBS washes, 150 μL each), resuspended in PBS, and incubated at 37° C. for 15 min, after which 1.5 μM propidium iodide (PI), a marker of permeabilized cell membranes, was added.

[8] = target: cathepsin B (Homo sapiens, UniProt P07858); assay: Resistance to acid proteases: cathepsin B; assay type: in vitro ADME; details: 50 pmol, 30 min, 37° C., pH 5
Method: 50 pmol aPPR, 5.2R, 5.3R, ZF5.3R, TatR (SEQ ID NO:67), or Arg8R (SEQ ID NO:68) were incubated with 5 pg cathepsin B, D, or L for 30 min at 37° C. in 10 μL of 20 mM sodium phosphate buffer (pH 5) containing 150 mM NaCl. At the end of the incubation, the reaction was stopped by adding 40 μL of a solution containing a 84:15:1 ratio of water:EtOH:TFA before analysis by HPLC.

Substance	effect of bafilomycin on TR [1]	translocation ratio (TR) ([1]; 1 μM)	effect of EIPA on TR [1]	effect of dynasore on TR [1]	effect of methyl-β-cyclodextrin (MβCD) on TR [1]	effect of Rab5Q79L on ability to reach the cytoplasm / TR [2]	material found in SLO cytoplasmic extracts (HPLC) [7]	degradation by cathepsin B (HPLC) [8]	also measured
K^DexGRKKRRQRRRPPQY-NH2 (K(dexamethasone)GRKKRRQRRRPPQY-NH2) [TatDex]	completely blocked the increase in TR	2.85±0.10	reduced, to background levels	reduced, to background levels	reduced, to background levels	blocked the ability	–	–	increase in TR blocked by wortmannin ([1]; 200 nM wortmannin, 1 μM): 72%; TR (GR-mCherry), Rab5Q79L-GFP expressing cells ([2]; 1 μM, 30 min, Rab5Q79L-GFP): 1.26±0.03; TR (GR-mCherry), Rab5-GFP expressing cells ([2]; 1 μM, 30 min, wild-type Rab5-GFP): 1.57±0.04; eGFP expression ([3]; 1 μM, lysates): significant eGFP expression; translocation ratio (TR), GR★-GFP ([4]; 1 μM, 30 min, Saos-2(GIGT) cells): 2.28±0.24
K^DexWYSCNVCGKAFVLSRHLNRHLRVHRRAT-NH2 (K(dexamethasone)WYSCNVCGKAFVLSRHLNRHLRVHRRAT-NH2; cysteine pairing not given here) [ZF5.3Dex]	reduced to background levels	2.4±0.09	reduced to background levels	reduced to background levels	reduced to background levels	–	–	–	EC50 fold lower than that of ZFN1-4Dex [3]: 70-80 fold; EC50 fold lower than that of wtZFDex [3]: 100 fold; EC50 ([3]; Dex-labeled peptides, 24 h, lysates, read-out: EC50 (eGFP expression, GIGI)): 1.4 nM; GR★-GFP translocation (GIGT) compared with wtZF and all four ZFN domains ([4]; GIGT): significantly higher levels; cells expressing GR★-GFP with significant translocation ratios ([4]; GIGT): greater than 99%
K^RhodRRRRRRRR-NH2 (K(Rhod)RRRRRRRR-NH2; reading uncertain; also: printed as K^RhodRRRRRRRR-NH2) [Arg8R]	–	–	–	–	–	–	retention times distinct from the starting material; also recorded: little or no material with the same retention time as the starting material	little or no degradation	intracellular red fluorescent signal [5]: red fluorescent puncta throughout the cytosol; effect of EIPA on uptake ([6]; 50 μM EIPA): dramatically reduced the uptake; effect of dynasore on uptake ([6]; 80 μM dynasore): completely blocked the uptake; effect of MβCD on uptake ([6]; 5 mM MβCD): increased
K^RhodWYSCNVCGKAFVLSRHLNRHLRVHRRAT-NH2 (K(Rhod)WYSCNVCGKAFVLSRHLNRHLRVHRRAT-NH2; cysteine pairing not given here; reading uncertain; also: printed as KRhodWYSCNVCGKAFVLSRHLNRHLRVHRRAT-NH2) [ZF5.3R]	–	–	–	–	–	unaffected	can be recovered from cytosolic extracts; also recorded: a single peak with the same retention time as the starting material	little or no degradation	effect of wortmannin on TR ([1]; wortmannin treatment): unaffected

Source: US11155580B2, “Modified proteins and methods of use thereof” (YALE UNIVERSITY, priority 2013, dated 2021)
